According to ChEMBL document CHEMBL1201862, “PubChem BioAssay data set” (2004):
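Five concentrations, 48 hours, 96-well plates. At the GI50, growth is halved.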 Calls of active or inactive are those of the source. Cut-off read from the data, not from the text of the source: active = GI50 up to about 1.1 µM and inactive = higher.

Key:
Assay in all cases: NCI anticancer screen, dose series, 48 h
BT-549 = test system: BT-549
LOX IMVI = test system: LOX IMVI
SN12C = test system: SN12C
SF-295 = test system: SF-295
OVCAR-8 = test system: OVCAR-8
HT-29 = test system: HT-29
CAKI-1 = test system: CAKI-1
HCT-15 = test system: HCT-15
SNB-19 = test system: SNB-19
PC-3 = test system: PC-3
ACHN = test system: ACHN
KM12 = test system: KM12
SNB-75 = test system: SNB-75
EKVX = test system: EKVX
OVCAR-4 = test system: OVCAR-4
SK-MEL-5 = test system: SK-MEL-5
HL-60 = test system: HL-60
NCI-H226 = test system: NCI-H226
Hs-578T = test system: Hs-578T

Structure (SMILES) | GI50 (BT-549) | GI50 (LOX IMVI) | GI50 (SN12C) | GI50 (SF-295) | GI50 (OVCAR-8) | GI50 (HT-29) | GI50 (CAKI-1) | GI50 (HCT-15) | GI50 (SNB-19) | GI50 (PC-3) | GI50 (ACHN) | GI50 (KM12) | GI50 (SNB-75) | GI50 (EKVX) | GI50 (OVCAR-4) | GI50 (SK-MEL-5) | GI50 (HL-60) | GI50 (NCI-H226) | GI50 (Hs-578T)
CCOC(=O)CC1C(C(=O)OCC)=Cn2c([nH]c3cccc4cccc2c43)=C1C(=O)OCC (stereo not drawn) | > 100 µM (inactive) | > 100 µM (inactive) | > 100 µM (inactive) | > 100 µM (inactive) | > 100 µM (inactive) | > 100 µM (inactive) | > 100 µM (inactive) | > 100 µM | > 100 µM (inactive) | 91 µM (inactive) | > 100 µM (inactive) | > 100 µM (inactive) | > 100 µM (inactive) | > 100 µM (inactive) | > 100 µM (inactive) | 33.7 µM (inactive) | 25.3 µM (inactive) | > 100 µM (inactive) | –
O=c1sc2c(s1)SSSSS2 | > 50 µM (inactive) | 30.5 µM (inactive) | > 50 µM (inactive) | > 50 µM (inactive) | > 50 µM (inactive) | 21.1 µM (inactive) | > 50 µM (inactive) | > 50 µM | > 50 µM (inactive) | > 50 µM (inactive) | > 50 µM (inactive) | > 50 µM (inactive) | – | > 50 µM (inactive) | > 50 µM (inactive) | > 50 µM (inactive) | – | > 50 µM (inactive) | –
COc1ccc(C2(CC(C)C)CCN(S(=O)(=O)c3ccc(C)cc3)C2)cc1OC (stereo not drawn) | 71.1 µM (inactive) | 19.5 µM (inactive) | > 100 µM (inactive) | 36.5 µM (inactive) | – | 35.6 µM (inactive) | > 100 µM (inactive) | 31.7 µM | 49.7 µM (inactive) | 28.5 µM (inactive) | 36.6 µM (inactive) | 23.3 µM (inactive) | 36.9 µM (inactive) | 76.9 µM (inactive) | 27.3 µM (inactive) | 13.6 µM (inactive) | – | 22.5 µM (inactive) | –
O=C1C=Cc2c(I)sc(I)c21 | 17.6 µM (inactive) | 12.1 µM (inactive) | 19.5 µM (inactive) | 46.8 µM (inactive) | 18.9 µM (inactive) | 23.9 µM (inactive) | 18.7 µM (inactive) | 17.3 µM | – | – | 36.6 µM (inactive) | 20 µM (inactive) | 30.1 µM (inactive) | 26.1 µM (inactive) | 20 µM (inactive) | 74.5 µM (inactive) | – | 31.3 µM (inactive) | –
NNC(=O)c1nn[nH]c1C(=O)NN | 13.6 µM (inactive) | – | > 100 µM (inactive) | > 100 µM (inactive) | > 100 µM (inactive) | 13.5 µM (inactive) | 15.8 µM (inactive) | > 100 µM | > 100 µM (inactive) | > 100 µM (inactive) | – | > 100 µM (inactive) | – | – | > 10 µM (inactive) | > 100 µM (inactive) | > 100 µM (inactive) | – | –
NC(=S)N/N=C1\CCCCc2ccccc21 | > 10 µM (inactive) | – | > 10 µM (inactive) | > 10 µM (inactive) | > 10 µM (inactive) | > 10 µM (inactive) | > 10 µM (inactive) | > 10 µM | > 10 µM (inactive) | > 10 µM (inactive) | > 10 µM (inactive) | > 10 µM (inactive) | – | > 10 µM (inactive) | > 10 µM (inactive) | – | > 10 µM (inactive) | > 10 µM (inactive) | –
CC(C)OP(=O)(OC(C)C)/C(=N/Nc1ccc([N+](=O)[O-])cc1)NNC(=O)c1ccccc1 | – | 21.3 µM (inactive) | > 100 µM (inactive) | – | 34.7 µM (inactive) | – | 76.6 µM (inactive) | 48.1 µM | 73.8 µM (inactive) | – | 82.4 µM (inactive) | 38.3 µM (inactive) | 73.5 µM (inactive) | > 100 µM (inactive) | 31.4 µM (inactive) | 17.4 µM (inactive) | 19.7 µM (inactive) | 19 µM (inactive) | –
COC(=O)C(CCc1ccccc1I)C1=CCC2(CC1)OCCO2 (stereo not drawn) | – | 25.8 µM (inactive) | – | 36.9 µM (inactive) | 42 µM (inactive) | 35.1 µM (inactive) | 95.3 µM (inactive) | 34.1 µM | 36.3 µM (inactive) | 27 µM (inactive) | 79.3 µM (inactive) | 33.1 µM (inactive) | 34 µM (inactive) | 70.8 µM (inactive) | 40.1 µM (inactive) | 15 µM (inactive) | 0.0435 µM (active) | > 100 µM (inactive) | 37.6 µM (inactive)
Cc1oc(N)c(S(=O)(=O)/C(C#N)=C/c2ccccc2[N+](=O)[O-])c1C | 17.5 µM (inactive) | 14 µM (inactive) | 22.9 µM (inactive) | 33.9 µM (inactive) | – | 19.2 µM (inactive) | 22.6 µM (inactive) | 26.5 µM | 33.5 µM (inactive) | 23.1 µM (inactive) | 25.4 µM (inactive) | 25.2 µM (inactive) | 33.2 µM (inactive) | 33.7 µM (inactive) | 38.5 µM (inactive) | 19.2 µM (inactive) | – | 58.3 µM (inactive) | –
CC(=O)N(C)OC(=O)CC(=O)c1ccccc1 | – | > 100 µM (inactive) | > 100 µM (inactive) | > 100 µM (inactive) | > 100 µM (inactive) | > 100 µM (inactive) | > 100 µM (inactive) | – | > 100 µM (inactive) | – | > 100 µM (inactive) | > 100 µM (inactive) | 76.9 µM (inactive) | – | > 100 µM (inactive) | > 100 µM (inactive) | > 100 µM (inactive) | > 100 µM (inactive) | –
COC(=O)N/N=C(\C)C(CN(C)C)C(c1ccccc1)c1c(O)c2ccccc2oc1=O (stereo not drawn) | – | > 100 µM (inactive) | > 100 µM (inactive) | > 100 µM (inactive) | > 100 µM (inactive) | > 100 µM (inactive) | > 100 µM (inactive) | > 100 µM | > 100 µM (inactive) | – | > 100 µM (inactive) | > 100 µM (inactive) | > 100 µM (inactive) | > 100 µM (inactive) | > 100 µM (inactive) | > 100 µM (inactive) | > 100 µM (inactive) | > 100 µM (inactive) | –
CCOC(=O)NC1CN2CCC1CC2 (stereo not drawn) | – | > 100 µM (inactive) | > 100 µM (inactive) | > 100 µM (inactive) | > 100 µM (inactive) | > 100 µM (inactive) | > 100 µM (inactive) | > 100 µM | > 100 µM (inactive) | > 100 µM (inactive) | > 100 µM (inactive) | > 100 µM (inactive) | > 100 µM (inactive) | > 100 µM (inactive) | > 100 µM (inactive) | > 100 µM (inactive) | > 100 µM (inactive) | > 100 µM (inactive) | > 100 µM (inactive)
COc1cc(C2c3cc4c(cc3[C@@H](Nc3ccccc3)C3CO[C@@H](OC)[C@H]23)OCO4)cc(OC)c1O (stereo partly drawn) | – | – | 7.36 µM (inactive) | 3.46 µM (inactive) | 7.03 µM (inactive) | 4.82 µM (inactive) | – | 3.61 µM | 6.07 µM (inactive) | 8.81 µM (inactive) | 3.18 µM (inactive) | 5.83 µM (inactive) | 7.41 µM (inactive) | 20.7 µM (inactive) | > 25 µM (inactive) | 8.55 µM (inactive) | 2.87 µM (inactive) | – | 3.21 µM (inactive)
